This note sets out measurements from ChEMBL document CHEMBL1149021, “Vasoactive substances from Saussurea lappa” (J Nat Prod, 1986).

Structures are written as SMILES. The source made the active and inactive calls. The rule behind the calls is not given here.

The species entered for the test is Oryctolagus cuniculus. In words: Vasorelaxant activity in rabbit aorta assessed as inhibition of KCl-induced contraction. Type of test: functional, tissue-based.

Turning to `C=C1C(=O)O[C@@H]2/C=C(\C)CC/C=C(\C)CC[C@@H]12`, the result was Active.
The same measure for `C=C1CC[C@H]2C(=C)C(=O)O[C@@H]2C2C(=C)CCC12` (some centres not stated): “Active”.
